Assay results as given in patent publication US12139487B2, “Compounds and uses thereof” (Foghorn Therapeutics Inc., priority 2022, dated 2024).
pIC50: −log10 of the molar value.

Tests used:
BRM = molecular target: T1, BRM (Homo sapiens, UniProt P51531); test: ATPase catalytic activity assay (ADP-Glo), BRM; format: biochemical; details: Table 10; for Ratio (BRG1 IC50 (μM) divided by BRM IC50 (μM)): ATPase assay, selectivity BRG1/BRM; for pIC50: ATPase catalytic activity assay (ADP-Glo)
T1 construct: made in house; host or cells: High Five insect cells
T1 sequence (P51531 whole entry): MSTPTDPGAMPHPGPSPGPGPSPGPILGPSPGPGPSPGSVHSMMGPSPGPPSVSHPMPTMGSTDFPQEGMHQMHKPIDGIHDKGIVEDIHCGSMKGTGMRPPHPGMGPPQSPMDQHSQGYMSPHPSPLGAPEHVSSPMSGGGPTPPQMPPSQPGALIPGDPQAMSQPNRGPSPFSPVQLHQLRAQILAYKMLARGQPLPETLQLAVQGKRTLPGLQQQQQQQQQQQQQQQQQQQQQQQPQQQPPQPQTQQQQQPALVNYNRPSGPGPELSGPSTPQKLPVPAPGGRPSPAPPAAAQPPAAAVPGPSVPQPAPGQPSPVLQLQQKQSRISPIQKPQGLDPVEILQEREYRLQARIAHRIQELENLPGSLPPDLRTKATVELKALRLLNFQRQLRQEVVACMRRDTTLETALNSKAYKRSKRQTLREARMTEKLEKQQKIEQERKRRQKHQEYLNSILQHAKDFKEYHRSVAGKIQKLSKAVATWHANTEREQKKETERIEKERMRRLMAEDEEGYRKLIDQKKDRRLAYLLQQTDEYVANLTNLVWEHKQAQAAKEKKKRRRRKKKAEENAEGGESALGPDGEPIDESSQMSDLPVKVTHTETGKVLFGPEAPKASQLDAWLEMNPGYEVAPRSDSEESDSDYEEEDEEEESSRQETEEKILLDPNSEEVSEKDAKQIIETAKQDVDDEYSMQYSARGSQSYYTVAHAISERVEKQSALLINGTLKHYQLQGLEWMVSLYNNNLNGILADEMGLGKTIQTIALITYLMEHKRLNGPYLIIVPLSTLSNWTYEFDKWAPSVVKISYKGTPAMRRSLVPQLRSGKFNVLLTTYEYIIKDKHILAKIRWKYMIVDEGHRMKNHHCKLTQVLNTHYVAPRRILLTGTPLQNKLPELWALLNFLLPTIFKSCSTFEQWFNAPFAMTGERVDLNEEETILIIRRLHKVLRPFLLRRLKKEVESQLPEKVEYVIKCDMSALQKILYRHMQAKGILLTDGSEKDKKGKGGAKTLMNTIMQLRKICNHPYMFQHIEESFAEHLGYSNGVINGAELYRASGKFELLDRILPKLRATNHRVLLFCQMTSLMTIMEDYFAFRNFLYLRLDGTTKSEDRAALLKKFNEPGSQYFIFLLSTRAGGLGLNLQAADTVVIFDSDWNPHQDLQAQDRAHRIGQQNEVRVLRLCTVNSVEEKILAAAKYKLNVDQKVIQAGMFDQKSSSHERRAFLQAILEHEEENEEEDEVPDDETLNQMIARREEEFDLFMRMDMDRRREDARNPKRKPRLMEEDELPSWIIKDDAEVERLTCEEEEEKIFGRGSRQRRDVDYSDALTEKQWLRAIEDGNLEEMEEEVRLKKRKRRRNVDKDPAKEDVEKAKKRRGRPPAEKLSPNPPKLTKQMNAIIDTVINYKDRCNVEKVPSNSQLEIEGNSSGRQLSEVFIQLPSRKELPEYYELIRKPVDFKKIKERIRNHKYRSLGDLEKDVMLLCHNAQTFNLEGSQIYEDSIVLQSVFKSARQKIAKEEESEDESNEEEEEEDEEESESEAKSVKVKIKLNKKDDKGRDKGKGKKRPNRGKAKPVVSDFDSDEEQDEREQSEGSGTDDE
Procedure, shortened: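 ADP-Glo luminescence measures ADP produced by BRM ATPase (30 nM) during 1 h at room temperature. ATP is 400 μM, with 20 nM salmon sperm DNA as cofactor. Buffer: 20 mM Tris pH 8, 20 mM MgCl2, 50 mM NaCl, 0.1% Tween-20, 1 mM DTT.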

BRG-1 = molecular target: T2, BRG-1 (Homo sapiens, UniProt P51532); test: ATPase catalytic activity assay (ADP-Glo), BRG-1; format: biochemical; details: Table 10, read-out: BRG1 IC50
T2 construct: made in house; host or cells: High Five insect cells
T2 sequence (P51532 whole entry): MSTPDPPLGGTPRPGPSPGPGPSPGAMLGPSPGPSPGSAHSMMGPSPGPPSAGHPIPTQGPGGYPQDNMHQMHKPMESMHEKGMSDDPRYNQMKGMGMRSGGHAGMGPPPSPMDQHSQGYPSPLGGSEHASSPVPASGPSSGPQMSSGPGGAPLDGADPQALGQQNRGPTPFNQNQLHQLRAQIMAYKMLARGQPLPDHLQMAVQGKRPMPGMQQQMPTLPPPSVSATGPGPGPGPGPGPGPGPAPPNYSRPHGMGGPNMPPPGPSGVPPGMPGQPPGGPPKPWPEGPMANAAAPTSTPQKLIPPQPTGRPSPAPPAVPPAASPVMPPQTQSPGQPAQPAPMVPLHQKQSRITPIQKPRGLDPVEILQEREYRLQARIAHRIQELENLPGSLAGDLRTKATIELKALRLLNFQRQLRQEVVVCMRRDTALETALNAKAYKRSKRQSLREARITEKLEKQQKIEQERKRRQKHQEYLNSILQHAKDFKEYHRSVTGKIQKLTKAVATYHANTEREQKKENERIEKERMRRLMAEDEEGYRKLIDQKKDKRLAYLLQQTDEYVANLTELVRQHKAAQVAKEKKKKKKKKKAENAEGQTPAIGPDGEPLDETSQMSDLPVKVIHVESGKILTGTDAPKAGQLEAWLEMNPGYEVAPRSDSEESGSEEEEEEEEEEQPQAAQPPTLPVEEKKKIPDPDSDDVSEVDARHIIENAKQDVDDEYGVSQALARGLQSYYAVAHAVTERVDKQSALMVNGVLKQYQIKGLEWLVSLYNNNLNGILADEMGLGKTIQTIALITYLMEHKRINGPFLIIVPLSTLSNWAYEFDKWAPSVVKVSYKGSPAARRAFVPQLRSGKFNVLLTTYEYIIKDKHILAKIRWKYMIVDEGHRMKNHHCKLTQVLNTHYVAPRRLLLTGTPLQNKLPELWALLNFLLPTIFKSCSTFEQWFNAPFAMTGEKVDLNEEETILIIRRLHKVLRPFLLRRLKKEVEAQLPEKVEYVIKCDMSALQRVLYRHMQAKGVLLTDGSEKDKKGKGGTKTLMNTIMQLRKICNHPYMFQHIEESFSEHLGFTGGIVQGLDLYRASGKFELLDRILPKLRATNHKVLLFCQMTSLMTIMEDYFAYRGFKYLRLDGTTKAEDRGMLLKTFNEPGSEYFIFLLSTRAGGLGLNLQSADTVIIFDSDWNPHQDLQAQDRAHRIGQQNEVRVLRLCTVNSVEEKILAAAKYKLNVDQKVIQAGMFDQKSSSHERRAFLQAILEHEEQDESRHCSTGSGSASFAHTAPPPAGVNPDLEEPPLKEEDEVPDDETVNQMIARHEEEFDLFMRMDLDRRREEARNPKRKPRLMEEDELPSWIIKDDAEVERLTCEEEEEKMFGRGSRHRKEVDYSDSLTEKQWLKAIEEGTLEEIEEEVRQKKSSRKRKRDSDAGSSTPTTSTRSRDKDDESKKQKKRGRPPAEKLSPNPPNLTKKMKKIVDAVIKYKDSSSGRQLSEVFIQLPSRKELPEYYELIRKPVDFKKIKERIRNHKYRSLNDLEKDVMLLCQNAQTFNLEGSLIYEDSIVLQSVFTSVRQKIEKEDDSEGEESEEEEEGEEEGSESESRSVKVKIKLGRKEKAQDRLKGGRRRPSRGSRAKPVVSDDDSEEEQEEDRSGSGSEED
Procedure, shortened: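 In this in vitro format, BRG-1 hydrolysis product ADP is detected via a two-step ADP-Glo workup (ATP removal, then ADP-to-ATP conversion with luciferase detection) followed by a luminescence read.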

SMILES | Ratio (BRG1 IC50 (μM) divided by BRM IC50 (μM)) (BRM) | pIC50 (BRM) | pIC50 (BRG-1)
CCN(CC)c1cnc2c(c1)OCCN2c1ccc2cnc(CNC(=O)c3cc(F)c4c(c3)S(=O)(=O)[C@@H](F)COC4)cc2n1 [Compound 17] | 12.76 | 8.82 | 7.63
COc1nc(C(F)F)ccc1-c1ccc2cnc(CNC(=O)c3cc(F)c4c(c3)S(=O)(=O)[C@@H](F)CCO4)cc2n1 [Compound 177] | 22.67 | 8.25 | 6.95
C[C@@H]1CN(c2cccc(-c3ccc4cnc(CNC(=O)c5ccc6c(c5)S(=O)(=O)[C@@H](F)CCO6)cc4n3)n2)C[C@H](C)O1 [Compound 22] | 9.93 | 8.80 | 7.79
O=C(NCc1cc2nc(-c3ccc(C(F)F)c(C4CC4)n3)ccc2cn1)c1cc(F)c2c(c1)S(=O)(=O)[C@@H](F)CCO2 [Compound 60] | 18.66 | 8.59 | 7.27
C[C@H](NC(=O)c1cc(F)c2c(c1)S(=O)(=O)[C@@H](F)CCO2)c1cc2nc(N3CCOc4cc(C5CC5)cnc43)ccc2cn1 [Compound 240] | 19.83 | 8.12 | 6.73
O=C(NCc1cc2nc(-c3cccc(C4CC4)n3)ccc2cn1)c1cc(F)c2c(c1)S(=O)(=O)[C@@H](F)CCO2 [Compound 252] | 23.94 | 8.10 | 6.66
O=C(NCc1cc2nc(N3CCOc4cc(C5CC5)cnc43)ccc2cn1)c1cc(Cl)c2c(c1)S(=O)(=O)[C@@H](F)CCO2 [Compound 216] | 21.18 | 8.19 | 6.83
[2H]C1([2H])Oc2c(F)cc(C(=O)NCc3cc4nc(N5CCOc6cc(C7CC7)cnc65)ccc4cn3)cc2S(=O)(=O)[C@]([2H])(F)C1([2H])[2H] [Compound 90] | 15.80 | 8.49 | 7.29
COc1nc([C@H](C)F)ccc1-c1ccc2cnc(CNC(=O)c3cc(Cl)c4c(c3)S(=O)(=O)[C@@H](F)COC4)cc2n1 [Compound 174] | 28.19 | 8.25 | 6.80
CCN(CC)c1cnc2c(c1)OCCN2c1ccc2cnc(CNC(=O)c3cc(F)c4c(c3)S(=O)(=O)[C@@H](F)CCO4)cc2n1 [Compound 99] | 12.19 | 8.46 | 7.37
O=C(NCc1cc2nc(-c3cccc(OC(F)F)c3)ccc2cn1)c1cc(F)c2c(c1)S(=O)(=O)[C@@H](F)COC2 [Compound 297, (2R)—N-[[2-[3-(difluoromethoxy)phenyl]-1,6-naphthyridin-7-yl]methyl]-2,6-difluoro-1,1-dioxo-3,5-dihydro-2H-4,1λ6-benzoxathiepine-8-carboxamide] | 29.64 | 8.00 | 6.57
[2H]C1([2H])Oc2c(F)cc(C(=O)NCc3cc4nc(-c5ccc(OC(F)F)c(C6CC6)n5)ccc4cn3)cc2S(=O)(=O)[C@@]([2H])(F)C1([2H])[2H] [Compound 186] | 16.18 | 8.24 | 6.99
O=C(NCc1cc2nc(N3CCOc4cc(CC(F)F)cnc43)ccc2cn1)c1cc(F)c2c(c1)S(=O)(=O)[C@@H](F)CCO2 [Compound 145] | 16.05 | 8.32 | 7.11
[2H]C1([2H])OC([2H])([2H])[C@H](F)S(=O)(=O)c2cc(C(=O)NCc3cc4nc(N5CCOc6ccc(C7CC7)nc65)ccc4cn3)cc(F)c21 [Compound 59] | – | 8.60 | 7.14
O=C(NCc1cc2nc(-c3cccc(OC(F)F)n3)ccc2cn1)c1ccc2c(c1)S(=O)(=O)[C@@H](F)CCOC2 [Compound 42] | 13.35 | 8.70 | 7.57
CCOc1ccc(-c2ccc3cnc(CNC(=O)c4cc(F)c5c(c4)S(=O)(=O)[C@@H](F)CCO5)cc3n2)nc1[C@H]1CC1(F)F [Compound 313] | 36.05 | 7.89 | 6.26
O=C(NCc1cc2nc(N3CCOc4ccc(N5CC(F)C5)nc43)ccc2cn1)c1cc(F)c2c(c1)S(=O)(=O)[C@@H](F)COC2 [Compound 63] | 23.13 | 8.59 | 7.23

SMILES | Ratio (BRG1 IC50 (μM) divided by BRM IC50 (μM)) (BRM) | pIC50 (BRM) | pIC50 (BRG-1)
[2H]C1([2H])OC[C@H](F)S(=O)(=O)c2cc(C(=O)NCc3cc4nc(N5CCOc6ccc(C(F)F)nc65)ccc4cn3)cc(F)c21 [Compound 140] | 17.66 | 8.33 | 7.08
C[C@@H]1C[C@H]1c1cnc2c(c1)OCCN2c1ccc2cnc(CNC(=O)c3cc(F)c4c(c3)S(=O)(=O)[C@@H](F)CCO4)cc2n1 [Compound 115] | 22.17 | 8.40 | 6.98
O=C(NCc1cc2nc(N3CCOc4cc(C5CC5)cnc43)ccc2cn1)c1ccc2c(c1)S(=O)(=O)[C@@H](F)CCO2 [Compound 38] | 16.77 | 8.70 | 7.47
C[C@@H]1CCN1c1cnc2c(c1)OCCN2c1ccc2cnc(CNC(=O)c3cc(Br)c4c(c3)S(=O)(=O)[C@@H](F)CCO4)cc2n1 [Compound 299] | 29.29 | 8.00 | 6.53
COc1nc([C@@H](F)C(F)F)ccc1-c1ccc2cnc(CNC(=O)c3cc(F)c4c(c3)S(=O)(=O)[C@@H](F)CCO4)cc2n1 [Compound 298] | 14.40 | 8.00 | 6.85
O=C(NCc1cc2nc(N3CCOc4ccc(N5CCC(F)(F)C5)nc43)ccc2cn1)c1cc(F)c2c(c1)S(=O)(=O)[C@@H](F)CCO2 [Compound 119] | 10.33 | 8.39 | 7.37
O=C(NCc1cc2nc(N3CCOc4cc(N5CC(CF)C5)cnc43)ccc2cn1)c1cc(F)c2c(c1)S(=O)(=O)[C@@H](F)CCO2 [Compound 248] | 16.34 | 8.11 | 6.89
C[C@H]1[C@@H](F)CN1c1cnc2c(c1)OCCN2c1ccc2cnc(CNC(=O)c3cc(F)c4c(c3)S(=O)(=O)[C@@H](F)CCO4)cc2n1 [Compound 69] | 13.99 | 8.57 | 7.43
O=C(NCc1cc2nc(N3CCCc4cc(N5CCOCC5)cnc43)ccc2cn1)c1cc(F)c2c(c1)S(=O)(=O)[C@@H](F)CCO2 [Compound 172] | 13.09 | 8.26 | 7.13
CO[C@H](C)COc1ccc2c(c1)N(c1ccc3cnc(CNC(=O)c4cc(F)c5c(c4)S(=O)(=O)[C@@H](F)CCO5)cc3n1)CCO2 [Compound 24] | 18.65 | 8.77 | 7.51
COCCc1cnc2c(c1)OCCN2c1ccc2cnc(CNC(=O)c3cc(F)c4c(c3)S(=O)(=O)[C@@H](F)CCO4)cc2n1 [Compound 201] | 10.41 | 8.21 | 7.19
CO[C@@H]1C[C@H]1c1cnc2c(c1)OCCN2c1ccc2cnc(CNC(=O)c3cc(F)c4c(c3)S(=O)(=O)[C@@H](F)CCO4)cc2n1 [Compound 152] | 11.35 | 8.30 | 7.28
O=C(NCc1cc2nc(N3CCOc4cc(OC(F)F)cnc43)ccc2cn1)c1cc(F)c2c(c1)S(=O)(=O)[C@@H](F)CCO2 [Compound 180] | 18.29 | 8.24 | 6.99
Cc1cc(C(=O)NCc2cc3nc(-c4cccc(OC(F)F)n4)ccc3cn2)cc2c1COC[C@H](F)S2(=O)=O [Compound 206] | 31.39 | 8.21 | 6.71
O=C(NCc1cc2cc(N3CCOc4cc(C5CC5)cnc43)ccc2cn1)c1cc(F)c2c(c1)S(=O)(=O)[C@@H](F)COC2 [Compound 9] | 23.22 | 8.89 | 7.52
COc1ccc(-c2ccc3cnc(CNC(=O)c4cc(F)c5c(c4)S(=O)(=O)[C@@H](F)CCO5)cc3n2)nc1[C@@H]1CC1(F)F [Compound 144] | 25.02 | 8.32 | 6.96
